Laboratory results published in patent US10125134B2 (Mirati Therapeutics, Inc., priority 2016, dated 2018).
Read-outs that look alike come from different tables or passages of the source.

Key:
KRas G12C = KRas G12C (Homo sapiens, UniProt P01116, C118S/C51S/C80L/G12C); experiment: KRas G12C Modification Assay (LCMS detection of covalent adduct); assay type: binding; conditions: normalized percent of control; tested at 5 μM concentration for 3 hours
In short: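 Cys-light KRas G12C mutant protein incubated with compound in K-Ras assay buffer, reactions quenched at set time points with 25 mM acetic acid and analysed by intact-protein LC/MS on a C-3 column. Deconvoluted mass heights expressed as percent of control (POC) relative to compound-free protein.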

[1] = tested on: NCI-H358 cells (express KRas G12C), Phospho-ERK; experiment: Cellular inhibition of KRas G12C: Phospho-ERK in NCI-H358 cells; assay type: cell-based; conditions: pERK(Thr202/Tyr204) normalized with GAPDH, NCI-H358 cells, 3 hours, read-out: IC50
In short: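 IC50 derived by 4-parameter fit of GAPDH-normalized pERK(Thr202/Tyr204) signal, as percent of DMSO control. Signal came from in-cell immunodetection with infrared secondaries after 3 h compound exposure of KRas G12C NCI-H358 cells at 0.5% DMSO.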

| SMILES | POC (KRas G12C) | IC50 ([1]; Homo sapiens, NCI-H358, 3 h) [µM] | IC50 [1] [µM] | IC50 ([1]; Homo sapiens) [µM] |
| --- | --- | --- | --- | --- |
| C=CC(=O)N1CCN(c2nc(OCCCN3C[C@@H]4C[C@H]3CO4)nc3c2CCN(c2cccc4cccc(C)c24)C3)C[C@@H]1CC#N [Example 369, 2-((S)-4-(2-(3-((1 S,4S)-2-oxa-5-azabicyclo[2.2.1]heptan-5-yl)propoxy)-7-(8-methylnaphthalen-1-yl)-5,6,7,8-tetrahydropyrido[3,4-d]pyrimidin-4-yl)-1-acryloylpiperazin-2-yl)acetonitrile] | C (“C”>50% POC) | 0.0001 to 1 |  |  |
| C=CC(=O)N1CCN(c2nc(OCCCN3CCOCC3)nc3c2CCN(c2cccc4cccc(C)c24)C3)C[C@@H]1CC#N [Example 370, (S)-2-(1-acryloyl-4-(7-(8-methylnaphthalen-1-yl)-2-(3-morpholinopropoxy)-5,6,7,8-tetrahydropyrido[3,4-d]pyrimidin-4-yl)piperazin-2-yl)acetonitrile] | C (“C”>50% POC) | 0.0001 to 1 |  |  |
| C=CC(=O)N1CCN(c2nc(OCCC(=O)N(C)C)nc3c2CCN(c2cccc4cccc(C)c24)C3)C[C@@H]1CC#N [Example 371, (S)-3-((4-(4-acryloyl-3-(cyanomethyl)piperazin-1-yl)-7-(8-methylnaphthalen-1-yl)-5,6,7,8-tetrahydropyrido[3,4-d]pyrimidin-2-yl)oxy)-N,N-dimethylpropanamide] | C (“C”>50% POC) | 0.0001 to 1 |  |  |
| C/C=C/C(=O)N1CCN(c2nc(OC[C@@H]3CCCN3C)nc3c2CCN(c2cccc4cccc(C)c24)C3)C[C@@H]1CC#N [Example 372, 2-((S)-1-((E)-but-2-enoyl)-4-(7-(8-methylnaphthalen-1-yl)-2-(((S)-1-methylpyrrolidin-2-yl)methoxy)-5,6,7,8-tetrahydropyrido[3,4-d]pyrimidin-4-yl)piperazin-2-yl)acetonitrile] | C (“C”>50% POC) | 0.0001 to 1 |  |  |
| C=CC(=O)N1CCN(c2nc(OC[C@@H]3CCCN3C)nc3c2CCN(c2ncccc2C(F)(F)F)C3)CC1CC#N (stereo partly drawn) [Example 373, 2-(1-acryloyl-4-(2-(((S)-1-methylpyrrolidin-2-yl)methoxy)-7-(3-(trifluoromethyl)pyridin-2-yl)-5,6,7,8-tetrahydropyrido[3,4-d]pyrimidin-4-yl)piperazin-2-yl)acetonitrile] | C (“C”>50% POC) | > 1 |  |  |
| C=CC(=O)N1CCN(c2nc(OC[C@@H]3CCCN3C)nc3c2CCN(c2ccccc2CC(F)(F)F)C3)CC1CC#N (stereo partly drawn) [Example 374, 2-(1-acryloyl-4-(2-(((S)-1-methylpyrrolidin-2-yl)methoxy)-7-(2-(2,2,2-trifluoroethyl)phenyl)-5,6,7,8-tetrahydropyrido[3,4-d]pyrimidin-4-yl)piperazin-2-yl)acetonitrile] | C (“C”>50% POC) |  | > 1 |  |
| CC#CC(=O)N1CCN(c2nc(OC[C@@H]3CCCN3C)nc3c2CCN(c2cccc4ccccc24)C3)CC1CC#N (stereo partly drawn) [Example 376, 2-(1-(but-2-ynoyl)-4-(2-(((S)-1-methylpyrrolidin-2-yl)methoxy)-7-(naphthalen-1-yl)-5,6,7,8-tetrahydropyrido[3,4-d]pyrimidin-4-yl)piperazin-2-yl)acetonitrile 2,2,2-trifluoroacetate] | C (“C”>50% POC) | 0.0001 to 1 |  |  |
| C=CC(=O)N1CCN(c2nc(OC[C@@H]3CCCCN3C)nc3c2CCN(c2cccc4ccccc24)C3)C[C@@H]1CC#N [Example 377, 2-((S)-1-acryloyl-4-(2-(((S)-1-methylpiperidin-2-yl)methoxy)-7-(naphthalen-1-yl)-5,6,7,8-tetrahydropyrido[3,4-d]pyrimidin-4-yl)piperazin-2-yl)acetonitrile] | C (“C”>50% POC) | 0.0001 to 1 |  |  |
| C=CC(=O)N1C[C@@H](C)N(c2nc(OC[C@@H]3CCCN3C)nc3c2CCN(c2cccc4ccccc24)C3)C[C@@H]1CC#N [Example 378, 2-((2S,5R)-1-acryloyl-5-methyl-4-(2-(((S)-1-methylpyrrolidin-2-yl)methoxy)-7-(naphthalen-1-yl)-5,6,7,8-tetrahydropyrido[3,4-d]pyrimidin-4-yl)piperazin-2-yl)acetonitrile] | C (“C”>50% POC) | 0.0001 to 1 |  |  |
| C=CC(=O)N1CCN(c2nc(OC[C@@H]3CCCN3C)nc3c2CCN(c2ccccc2C(F)(F)F)C3)C[C@@H]1CC#N [Example 379, 2-((S)-1-acryloyl-4-(2-(((S)-1-methylpyrrolidin-2-yl)methoxy)-7-(2-(trifluoromethyl)phenyl)-5,6,7,8-tetrahydropyrido[3,4-d]pyrimidin-4-yl)piperazin-2-yl)acetonitrile] | C (“C”>50% POC) |  | 0.0001 to 1 |  |
| C=CC(=O)N1CCN(c2nc(OC[C@@H]3CCCN3CCOC)nc3c2CCN(c2cccc4ccccc24)C3)CC1CC#N (stereo partly drawn) [Example 380, 2-(1-acryloyl-4-(2-(((S)-1-(2-methoxyethyl)pyrrolidin-2-yl)methoxy)-7-(naphthalen-1-yl)-5,6,7,8-tetrahydropyrido[3,4-d]pyrimidin-4-yl)piperazin-2-yl)acetonitrile] | C (“C”>50% POC) |  | 0.0001 to 1 |  |
| C=CC(=O)N1CCN(c2nc(OC[C@@H]3C[C@@H](OC)CN3C)nc3c2CCN(c2cccc4ccccc24)C3)CC1CC#N (stereo partly drawn) [Example 381, 2-(1-acryloyl-4-(2-(((2S,4R)-4-methoxy-1-methylpyrrolidin-2-yl)methoxy)-7-(naphthalen-1-yl)-5,6,7,8-tetrahydropyrido[3,4-d]pyrimidin-4-yl)piperazin-2-yl)acetonitrile] | C (“C”>50% POC) |  | 0.0001 to 1 |  |
| C=CC(=O)N1CCN(c2nc(OC[C@@H]3CCCN3C)nc3c2CCN(c2cncc(F)c2C(F)(F)F)C3)C[C@@H]1CC#N [Example 383, 2-((S)-1-acryloyl-4-(7-(5-fluoro-4-(trifluoromethyl)pyridin-3-yl)-2-(((S)-1-methylpyrrolidin-2-yl)methoxy)-5,6,7,8-tetrahydropyrido[3,4-d]pyrimidin-4-yl)piperazin-2-yl)acetonitrile] | C (“C”>50% POC) | 0.0001 to 1 |  |  |
| C=CC(=O)N1CCN(c2nc(OC[C@@H]3C[C@@H](F)CN3C)nc3c2CCN(c2cncc(F)c2C(F)(F)F)C3)C[C@@H]1CC#N [Example 384, 2-((S)-1-acryloyl-4-(2-(((2S,4R)-4-fluoro-1-methylpyrrolidin-2-yl)methoxy)-7-(5-fluoro-4-(trifluoromethyl)pyridin-3-yl)-5,6,7,8-tetrahydropyrido[3,4-d]pyrimidin-4-yl)piperazin-2-yl)acetonitrile] | C (“C”>50% POC) |  |  | 0.0001 to 1 |
| C=CC(=O)N1CCN(c2nc(OC[C@@H]3CCCN3C)nc3c2CCN(c2cncc(Cl)c2C(F)(F)F)C3)C[C@@H]1CC#N [Example 385, 2-((S)-1-acryloyl-4-(7-(5-chloro-4-(trifluoromethyl)pyridin-3-yl)-2-(((S)-1-methylpyrrolidin-2-yl)methoxy)-5,6,7,8-tetrahydropyrido[3,4-d]pyrimidin-4-yl)piperazin-2-yl)acetonitrile] | C (“C”>50% POC) | 0.0001 to 1 |  |  |
| C=CC(=O)N1CCN(c2nc(OC[C@@H]3C[C@@H](F)CN3C(C)C)nc3c2CCN(c2cncc(F)c2C(F)(F)F)C3)C[C@@H]1CC#N [Example 386, 2-((S)-1-acryloyl-4-(2-(((2S,4R)-4-fluoro-1-isopropylpyrrolidin-2-yl)methoxy)-7-(5-fluoro-4-(trifluoromethyl)pyridin-3-yl)-5,6,7,8-tetrahydropyrido[3,4-d]pyrimidin-4-yl)piperazin-2-yl)acetonitrile] | C (“C”>50% POC) |  |  | 0.0001 to 1 |
| C=CC(=O)N1CCN(c2nc(OC[C@@H]3CCCN3C)nc3c2CCN(c2cncc(Cl)c2C)C3)C[C@@H]1CC#N [Example 387, 2-((S)-1-acryloyl-4-(7-(5-chloro-4-methylpyridin-3-yl)-2-(((S)-1-methylpyrrolidin-2-yl)methoxy)-5,6,7,8-tetrahydropyrido[3,4-d]pyrimidin-4-yl)piperazin-2-yl)acetonitrile] | C (“C”>50% POC) | 0.0001 to 1 |  |  |
| C=CC(=O)N1CCN(c2nc(OC[C@@H]3CCCN3C)nc3c2CCN(c2cccc(F)c2C)C3)C[C@@H]1CC#N [Example 388, 2-((S)-1-acryloyl-4-(7-(3-fluoro-2-methylphenyl)-2-(((S)-1-methylpyrrolidin-2-yl)methoxy)-5,6,7,8-tetrahydropyrido[3,4-d]pyrimidin-4-yl)piperazin-2-yl)acetonitrile] | C (“C”>50% POC) | 0.0001 to 1 |  |  |
| CC#CC(=O)N1CCN(c2nc(OC[C@@H]3CCCN3C)nc3c2CCN(c2cccc(C)c2C)C3)C[C@@H]1CC#N [Example 389, 2-((S)-1-(but-2-ynoyl)-4-(7-(2,3-dimethylphenyl)-2-(((S)-1-methylpyrrolidin-2-yl)methoxy)-5,6,7,8-tetrahydropyrido[3,4-d]pyrimidin-4-yl)piperazin-2-yl)acetonitrile] | C (“C”>50% POC) | > 1 |  |  |
| C=CC(=O)N1CCN(c2nc(OC[C@@H]3[C@@H](O)CCN3C)nc3c2CCN(c2cccc4ccccc24)C3)C[C@@H]1CC#N [Example 390, 2-((S)-1-acryloyl-4-(2-(((2R,3S)-3-hydroxy-1-methylpyrrolidin-2-yl)methoxy)-7-(naphthalen-1-yl)-5,6,7,8-tetrahydropyrido[3,4-d]pyrimidin-4-yl)piperazin-2-yl)acetonitrile] | C (“C”>50% POC) | 0.0001 to 1 |  |  |
